Measured values as given in PubChem BioAssay AID1963861 (Molecular Pharmacology Branch, DTP, NCI, 2024).
pIC50: −log10 of the molar value.

System: 885724-159-R-J1-PDC KRAS PDC multicell spheroid viability
Assay: Anticancer human tumor 885724-159-R-J1-PDC patient-derived pancreatic adenocarcinoma cell line growth inhibition [KRAS2]
Details: for pIC50: curve of first compound; for viability, T/C: stronger effect = lower value
Method in brief: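 KRAS-mutant tumor cells were grown as spheroids with HUVEC endothelial cells and human MSCs as stroma. Targeted agents were tested alone and with KRAS pathway inhibitors. Doses started at or near clinical Cmax, or 10 microM, descending half-log.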

[1] = second compound 0.1 µM, first compound 0.0316 µM
[2] = second compound 0.1 µM, first compound 0.1 µM
[3] = second compound 0.1 µM, first compound 0.316 µM
[4] = second compound 0.1 µM, first compound 1 µM
[5] = second compound 0.1 µM, first compound 3.16 µM
[6] = second compound 0.1 µM, first compound 10 µM
[7] = second compound 0.316 µM, first compound 0.0316 µM
[8] = second compound 0.316 µM, first compound 0.1 µM
[9] = second compound 0.316 µM, first compound 0.316 µM
[10] = second compound 0.316 µM, first compound 1 µM
[11] = second compound 0.316 µM, first compound 3.16 µM
[12] = second compound 0.316 µM, first compound 10 µM
[13] = second compound 1 µM, first compound 0.0316 µM
[14] = second compound 1 µM, first compound 0.1 µM
[15] = second compound 1 µM, first compound 0.316 µM
[16] = second compound 1 µM, first compound 1 µM
[17] = second compound 1 µM, first compound 3.16 µM
[18] = second compound 1 µM, first compound 10 µM
[19] = second compound 3.16 µM, first compound 0.0316 µM
[20] = second compound 3.16 µM, first compound 0.1 µM
[21] = second compound 3.16 µM, first compound 0.316 µM
[22] = second compound 3.16 µM, first compound 1 µM
[23] = second compound 3.16 µM, first compound 3.16 µM
[24] = second compound 3.16 µM, first compound 10 µM
[25] = second compound 10 µM, first compound 0.0316 µM
[26] = second compound 10 µM, first compound 0.1 µM
[27] = second compound 10 µM, first compound 0.316 µM
[28] = second compound 10 µM, first compound 1 µM
[29] = second compound 10 µM, first compound 3.16 µM
[30] = second compound 10 µM, first compound 10 µM
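Note: spheroids exposed to agents for 7 days before readout.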

For CC(C)NCC(C(=O)N1CCN(c2ncnc3c2C(C)CC3O)CC1)c1ccc(Cl)cc1 (stereo not given) + CNCc1ccccc1-c1csc(C(C)Nc2nc(C)nc3cc(OC)c(OC)cc23)c1, the pIC50 (second compound 0.1 µM) was under 5.00, the pIC50 (second compound 0.316 µM) was under 5.00 and the pIC50 (second compound 1 µM) was 5.38. For the same molecule, the pIC50 (second compound 3.16 µM) was over 7.50, the pIC50 (second compound 10 µM) was over 7.50 and the viability, T/C [1] was 87.4%. It also gave a viability, T/C [2] of 82.9%, a viability, T/C [3] of 76% and a viability, T/C [4] of 70.8%. It also gave a viability, T/C [5] of 76.8%, a viability, T/C [6] of 57.1% and a viability, T/C [7] of 87.4%. For the same molecule, the viability, T/C [8] was 77.3%, the viability, T/C [9] was 67.7% and the viability, T/C [10] was 72.7%. For the same molecule, the viability, T/C [11] was 78.2%, the viability, T/C [12] was 53.1% and the viability, T/C [13] was 94%. The viability, T/C [14] was 76.9%, the viability, T/C [15] was 64.9% and the viability, T/C [16] was 66.3%. The viability, T/C [17] was 68.8%, the viability, T/C [18] was 26.3% and the viability, T/C [19] was 1.32%. It also gave a viability, T/C [20] of 0.9%, a viability, T/C [21] of 1.56% and a viability, T/C [22] of 0.7%. The viability, T/C [23] was 0.43%, the viability, T/C [24] was 0.59% and the viability, T/C [25] was 0.17%. For the same molecule, the viability, T/C [26] was 0.16%, the viability, T/C [27] was 0.17% and the viability, T/C [28] was 0.31%. It also gave a viability, T/C [29] of 0.16% and a viability, T/C [30] of 0.23%.

CC(C)n1nc(-c2ccc3oc(N)nc3c2)c2c(N)ncnc21 + CNCc1ccccc1-c1csc(C(C)Nc2nc(C)nc3cc(OC)c(OC)cc23)c1 showed a pIC50 (second compound 0.1 µM) of under 7.00, a pIC50 (second compound 0.316 µM) of 7.38 and a pIC50 (second compound 1 µM) of 7.23. The pIC50 (second compound 3.16 µM) was over 9.50, the pIC50 (second compound 10 µM) was over 9.50 and the viability, T/C (second compound 0.1 µM, first compound 0.000316 µM) was 87%. The viability, T/C (second compound 0.1 µM, first compound 0.001 µM) was 81.1%, the viability, T/C (second compound 0.1 µM, first compound 0.00316 µM) was 73.6% and the viability, T/C (second compound 0.1 µM, first compound 0.01 µM) was 65%. The viability, T/C [1] was 54.6%, the viability, T/C [2] was 52.4% and the viability, T/C (second compound 0.316 µM, first compound 0.000316 µM) was 100%. It also gave a viability, T/C (second compound 0.316 µM, first compound 0.001 µM) of 75.3%, a viability, T/C (second compound 0.316 µM, first compound 0.00316 µM) of 70.7% and a viability, T/C (second compound 0.316 µM, first compound 0.01 µM) of 60.6%. The viability, T/C [7] was 50.2%, the viability, T/C [8] was 45.6% and the viability, T/C (second compound 1 µM, first compound 0.000316 µM) was 85.8%. For the same molecule, the viability, T/C (second compound 1 µM, first compound 0.001 µM) was 76.2%, the viability, T/C (second compound 1 µM, first compound 0.00316 µM) was 69.2% and the viability, T/C (second compound 1 µM, first compound 0.01 µM) was 60.6%. For the same molecule, the viability, T/C [13] was 50.2%, the viability, T/C [14] was 48.5% and the viability, T/C (second compound 3.16 µM, first compound 0.000316 µM) was 2.37%. It also gave a viability, T/C (second compound 3.16 µM, first compound 0.001 µM) of 11.2%, a viability, T/C (second compound 3.16 µM, first compound 0.00316 µM) of 2.11% and a viability, T/C (second compound 3.16 µM, first compound 0.01 µM) of 1.36%. It also gave a viability, T/C [19] of 3.15%, a viability, T/C [20] of 1.32% and a viability, T/C (second compound 10 µM, first compound 0.000316 µM) of 0.19%. For the same molecule, the viability, T/C (second compound 10 µM, first compound 0.001 µM) was 0.31%, the viability, T/C (second compound 10 µM, first compound 0.00316 µM) was 0.18% and the viability, T/C (second compound 10 µM, first compound 0.01 µM) was 0.18%. It also gave a viability, T/C [25] of 0.23% and a viability, T/C [26] of 0.34%.

Molecule CC1(C)CCC(CN2CCN(c3ccc(C(=O)NS(=O)(=O)c4ccc(NCC5CCOCC5)c([N+](=O)[O-])c4)c(Oc4cnc5[nH]ccc5c4)c3)CC2)=C(c2ccc(Cl)cc2)C1 + CNCc1ccccc1-c1csc(C(C)Nc2nc(C)nc3cc(OC)c(OC)cc23)c1 has a pIC50 (second compound 0.1 µM) of 5.17, a pIC50 (second compound 0.316 µM) of 5.24 and a pIC50 (second compound 1 µM) of 5.28. It also gave a pIC50 (second compound 3.16 µM) of over 7.50, a pIC50 (second compound 10 µM) of over 7.50 and a viability, T/C [1] of 96.3%. The viability, T/C [2] was 89.6%, the viability, T/C [3] was 88.8% and the viability, T/C [4] was 88.5%. The viability, T/C [5] was 82.7%, the viability, T/C [6] was 32.6% and the viability, T/C [7] was 86.6%. For the same molecule, the viability, T/C [8] was 90.3%, the viability, T/C [9] was 85.7% and the viability, T/C [10] was 91%. The viability, T/C [11] was 82.4%, the viability, T/C [12] was 21% and the viability, T/C [13] was 101%. The viability, T/C [14] was 93.6%, the viability, T/C [15] was 89.1% and the viability, T/C [16] was 82.3%. It also gave a viability, T/C [17] of 82.9%, a viability, T/C [18] of 12.1% and a viability, T/C [19] of 1.12%. It also gave a viability, T/C [20] of 0.55%, a viability, T/C [21] of 0.55% and a viability, T/C [22] of 0.79%. For the same molecule, the viability, T/C [23] was 0.62%, the viability, T/C [24] was 1.03% and the viability, T/C [25] was 0.42%. It also gave a viability, T/C [26] of 1.23%, a viability, T/C [27] of 0.37% and a viability, T/C [28] of 0.2%. The viability, T/C [29] was 0.17% and the viability, T/C [30] was 0.2%.
